# Data published in BindingDB's records for doi:10.1021/acsmedchemlett.3c00104 (Novartis Institutes for Biomedical Research, 2023).
# Molecular target: T1, DDB1- and CUL4-associated factor 1 (Homo sapiens, UniProt Q9Y4B6)
# Assay: Binding affinity to Avi-tagged DCAF1 (1073 to 1399 residues) (unknown origin) expressed in baculovirus infected in Sf9 insect cells by SPR analysis
# T1 sequence (Q9Y4B6 whole entry, the tested form may be a part): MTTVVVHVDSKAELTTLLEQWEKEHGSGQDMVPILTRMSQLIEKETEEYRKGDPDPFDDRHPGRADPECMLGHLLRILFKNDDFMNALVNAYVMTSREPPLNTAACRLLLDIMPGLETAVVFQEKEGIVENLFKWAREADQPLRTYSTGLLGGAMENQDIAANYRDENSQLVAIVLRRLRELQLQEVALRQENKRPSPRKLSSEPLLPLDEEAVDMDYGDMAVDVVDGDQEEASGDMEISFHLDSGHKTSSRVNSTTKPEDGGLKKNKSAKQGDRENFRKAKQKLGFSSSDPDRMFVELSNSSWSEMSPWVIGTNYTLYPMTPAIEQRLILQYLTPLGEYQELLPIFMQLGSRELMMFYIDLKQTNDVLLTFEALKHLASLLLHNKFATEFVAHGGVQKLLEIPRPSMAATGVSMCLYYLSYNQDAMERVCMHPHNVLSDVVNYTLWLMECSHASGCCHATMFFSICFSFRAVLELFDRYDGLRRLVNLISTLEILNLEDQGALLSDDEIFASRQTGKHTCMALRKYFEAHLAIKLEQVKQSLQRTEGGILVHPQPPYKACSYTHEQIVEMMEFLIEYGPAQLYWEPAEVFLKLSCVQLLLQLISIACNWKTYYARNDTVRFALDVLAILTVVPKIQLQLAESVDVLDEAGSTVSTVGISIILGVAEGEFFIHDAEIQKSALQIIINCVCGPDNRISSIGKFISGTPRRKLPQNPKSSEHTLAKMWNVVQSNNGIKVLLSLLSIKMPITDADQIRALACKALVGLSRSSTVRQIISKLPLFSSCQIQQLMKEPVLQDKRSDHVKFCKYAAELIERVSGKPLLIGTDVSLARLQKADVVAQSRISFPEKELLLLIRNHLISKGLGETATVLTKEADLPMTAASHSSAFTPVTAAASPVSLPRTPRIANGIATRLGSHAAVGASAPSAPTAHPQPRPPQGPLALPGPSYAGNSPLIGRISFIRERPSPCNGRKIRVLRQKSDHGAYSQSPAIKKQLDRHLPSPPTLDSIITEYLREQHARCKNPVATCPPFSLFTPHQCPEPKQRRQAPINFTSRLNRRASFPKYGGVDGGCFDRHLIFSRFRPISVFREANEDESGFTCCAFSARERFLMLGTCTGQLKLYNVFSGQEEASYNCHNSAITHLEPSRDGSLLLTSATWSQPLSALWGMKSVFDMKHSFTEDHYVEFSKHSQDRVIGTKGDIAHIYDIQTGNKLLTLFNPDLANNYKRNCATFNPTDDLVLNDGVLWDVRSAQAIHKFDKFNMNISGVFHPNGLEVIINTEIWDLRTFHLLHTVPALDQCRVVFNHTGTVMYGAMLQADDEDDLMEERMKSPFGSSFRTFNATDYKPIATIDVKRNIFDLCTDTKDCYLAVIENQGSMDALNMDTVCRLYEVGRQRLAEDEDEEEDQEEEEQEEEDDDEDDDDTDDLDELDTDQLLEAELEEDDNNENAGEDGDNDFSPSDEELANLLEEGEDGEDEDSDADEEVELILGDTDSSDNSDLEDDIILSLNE
row,Structure (SMILES),Kd [µM]
1,NC1=NCC(c2cccc(Oc3ccc(Cl)cc3)c2)C1 (stereo not drawn),> 100
2,CN1CCN(c2ccc3c(NCCN)nc(C4(c5ccc(Cl)cc5)CCCCC4)nc3c2)CC1,0.083
3,COc1ccc(C2(C3=Cc4ccccc4C4=NCCN34)CC2)cc1,> 50
4,CN1CCN(c2ccc3c(NCCN)nc(C4(c5ccc(Cl)cc5)CCCC4)nc3c2)CC1,0.098
5,COc1ccc(C2(C3=Cc4cc(N5CCN(C)CC5)ccc4C4=NCCN34)CC2)cc1,11.4
6,COc1ccc(C2(c3nc(NCCN)c4ccc(N5CCN(C)CC5)cc4n3)CC2)cc1,5.6
7,COc1ccc(C2(c3nc(NCCN)c4ccccc4n3)CC2)cc1,26.7
8,COc1ccc(C2(c3nc(NCCN)c4ccc(N5CCN(C(C)=O)CC5)cc4n3)CC2)cc1,1.5
9,CC(=O)N1CCN(c2ccc3c(NCCN)nc(C4(c5ccc(Cl)cc5)CCCC4)nc3c2)CC1,0.047
10,Clc1ccc(C2(C3=Cc4ccccc4C4=NCCN34)CC2)cc1,41

# Molecular target: T1, DDB1- and CUL4-associated factor 1
# Assay: Binding affinity to Avi-tagged DCAF1 (1039 to 1401 residues) (unknown origin) expressed in baculovirus infected in Sf9 insect cells by NMR analysis
row,Structure (SMILES),Kd [µM]
1,NC1=NCC(c2cccc(Oc3ccc(Cl)cc3)c2)C1 (stereo not drawn),> 500
2,CC(C)(Cc1ccccc1)C1=Cc2ccccc2C2=NCCN12,40
3,Clc1ccc(C2(C3=Cc4ccccc4C4=NCCN34)CC2)cc1,13
